Measurements from PubChem BioAssay (NCI).
Values joined by “and” are separate entries in the source; they are usually repeats but may differ in a detail not shown here. Equal entries are not always repeated.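 48-hour exposure; five concentrations; linearly interpolated endpoints. The concentration for 50% growth inhibition is given as GI50. The concentration for full growth arrest is given as TGI.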

Key:
Test in all cases: growth of human tumour cells (NCI), 48 h
[1] = tested on: U251 CNS
[2] = tested on: PC-3 prostate
[3] = tested on: OVCAR-8 ovarian
[4] = tested on: LOX IMVI melanoma
[5] = tested on: HCT-15 colon
[6] = tested on: SF-268 CNS
[7] = tested on: SR leukemia
[8] = tested on: CAKI-1 renal
[9] = tested on: CCRF-CEM leukemia
[10] = tested on: SF-539 CNS
[11] = tested on: 786-0 renal
[12] = tested on: SF-295 CNS
[13] = tested on: T-47D breast
[14] = tested on: OVCAR-3 ovarian
[15] = tested on: NCI-H226 lung
[16] = tested on: TK-10 renal
[17] = tested on: ACHN renal
[18] = tested on: SN12C renal
[19] = tested on: A549 NSCLC
[20] = tested on: MOLT-4 leukemia
[21] = tested on: K-562 leukemia
[22] = tested on: HT29 colon
[23] = tested on: NCI/ADR-RES ovarian
[24] = tested on: OVCAR-4 ovarian
[25] = tested on: UACC-62 melanoma
[26] = tested on: SW-620 colon
[27] = tested on: NCI-H23 lung
[28] = tested on: MCF7 breast
[29] = tested on: NCI-H460 lung
[30] = tested on: HCT-116 colon
[31] = tested on: OVCAR-5 ovarian
[32] = tested on: SK-OV-3 ovarian
[33] = tested on: UO-31 renal
[34] = tested on: NCI-H522 lung
[35] = tested on: M14 melanoma
[36] = tested on: RPMI-8226 leukemia
[37] = tested on: A498 renal
[38] = tested on: HL-60(TB) leukemia
[39] = tested on: MDA-MB-435
[40] = tested on: DU-145 prostate
[41] = tested on: RXF 393 renal
[42] = tested on: SNB-19 CNS
[43] = tested on: SK-MEL-5 melanoma
[44] = tested on: HS 578T breast
[45] = tested on: HOP-62 NSCLC
[46] = tested on: UACC-257 melanoma
[47] = tested on: COLO 205 colon
[48] = tested on: HOP-92 NSCLC
[49] = tested on: IGROV1 ovarian
[50] = tested on: SK-MEL-28 melanoma
[51] = tested on: EKVX NSCLC
[52] = tested on: KM12 colon
[53] = tested on: SK-MEL-2 melanoma
[54] = tested on: MDA-MB-231 breast
[55] = tested on: HCC-2998 colon
[56] = tested on: BT-549 breast

For `C/C=C/C1=CN2C(=O)c3cc(OC4OC(C)C(NC)C(C)(O)C4O)c(C)c(O)c3N=C[C@@H]2C1` (stereo partly drawn), the GI50 [1] was 43 nM and < 10 nM, the TGI [1] was 12.5 µM and the TGI [2] was 16.5 µM. For the same compound, the TGI [3] was over 100 µM, the GI50 [4] was 61.9 nM and < 10 nM and the TGI [4] was 4.06 µM. For the same compound, the TGI [5] was 11 µM, the GI50 [6] was 34.2 nM and < 10 nM and the GI50 [7] was 25.3 nM and < 10 nM. For the same compound, the GI50 [8] was 27.9 nM and < 10 nM, the GI50 [9] was 63.9 nM and < 10 nM and the TGI [9] was 41.5 µM. For the same compound, the GI50 [10] was 74.3 nM and < 10 nM, the GI50 [11] was 0.065 µM and the GI50 [12] was under 0.01 µM. It also gave a TGI [12] of over 100 µM, a TGI [13] of 15.3 µM and a GI50 [14] of 203 nM. For the same compound, the GI50 [15] was 124 nM, the GI50 [16] was 326 nM and the GI50 [17] was 71 nM and < 10 nM. The TGI [18] was 1.21 µM, the TGI [19] was 24.8 µM and the GI50 [20] was 41.3 nM and < 10 nM. For the same compound, the GI50 [21] was 43.1 nM and < 10 nM, the TGI [21] was over 100 µM and the TGI [22] was 10.2 µM. For the same compound, the TGI [23] was 4.71 µM, the TGI [24] was 20.7 µM and the GI50 [25] was 91.8 nM and < 10 nM. For the same compound, the GI50 [26] was 95.1 nM and < 10 nM, the TGI [26] was 10.2 µM and the GI50 [27] was 78.4 nM and < 10 nM. The TGI [28] was 13.4 µM, the GI50 [29] was 37.6 nM and < 10 nM and the TGI [30] was 11.9 µM. The TGI [31] was 2.92 µM, the TGI [32] was 12.4 µM and the GI50 [33] was 92.6 nM and < 10 nM. For the same compound, the GI50 [34] was 119 nM, the TGI [34] was 302 nM and the GI50 [35] was 58.9 nM. For the same compound, the TGI [35] was 0.213 µM, the GI50 [36] was 45.7 nM and < 10 nM and the GI50 [37] was 28.2 nM and < 10 nM. For the same compound, the TGI [37] was 88.7 nM and < 10 nM, the GI50 [38] was 0.0603 µM and the TGI [38] was 340 nM. For the same compound, the GI50 [39] was 0.0819 µM, the TGI [39] was 0.286 µM and the GI50 [40] was 61.7 nM and < 10 nM. For the same compound, the TGI [40] was 10.7 µM.
`COc1cc(/C=C2\C[C@H]3[C@@H]4CC=C5C[C@@H](OC(C)=O)CC[C@]5(C)[C@H]4CC[C@]3(C)[C@H]2OC(C)=O)ccc1OCCN1CCCCC1` gave a GI50 [41] of 6.94 µM, a TGI [41] of 18.8 µM and a GI50 [1] of 8760 nM. The TGI [1] was 16.5 µM, the GI50 [2] was 24.7 µM and the TGI [2] was over 50 µM. The GI50 [42] was 46.2 µM, the TGI [42] was over 50 µM and the GI50 [3] was 13 µM. For the same compound, the TGI [3] was over 50 µM, the GI50 [4] was 9630 nM and the TGI [4] was 18.5 µM. The GI50 [43] was 8.16 µM, the TGI [43] was 15.5 µM and the GI50 [44] was 12.1 µM. For the same compound, the TGI [44] was 42.8 µM, the GI50 [5] was 7.59 µM and the TGI [5] was 15.8 µM. For the same compound, the GI50 [6] was 35700 nM, the TGI [6] was over 50 µM and the GI50 [8] was 15600 nM. It also gave a TGI [8] of over 50 µM, a GI50 [10] of 9560 nM and a TGI [10] of 20.6 µM. The GI50 [11] was 12.3 µM, the TGI [11] was 21.3 µM and the GI50 [45] was 8.96 µM. For the same compound, the TGI [45] was 27.1 µM, the GI50 [46] was 5.77 µM and the TGI [46] was 13.6 µM. It also gave a GI50 [12] of 9.57 µM, a TGI [12] of 24.1 µM and a GI50 [13] of over 50 µM. For the same compound, the TGI [13] was over 50 µM, the GI50 [14] was 18500 nM and the TGI [14] was over 50000 nM. It also gave a GI50 [15] of over 50000 nM, a TGI [15] of over 50 µM and a GI50 [16] of 10500 nM. The TGI [16] was 19.1 µM, the GI50 [17] was 9280 nM and the TGI [17] was 16.8 µM. The GI50 [18] was 10.8 µM, the TGI [18] was 27.1 µM and the GI50 [19] was 19.3 µM. It also gave a TGI [19] of over 50 µM, a GI50 [20] of over 50000 nM and a TGI [20] of over 50 µM. For the same compound, the GI50 [21] was 12800 nM, the TGI [21] was 43.2 µM and the GI50 [22] was 23.2 µM. It also gave a TGI [22] of over 50 µM, a GI50 [23] of over 50 µM and a TGI [23] of over 50 µM. It also gave a GI50 [25] of 8140 nM, a TGI [25] of 15 µM and a GI50 [26] of 11200 nM. The TGI [26] was over 50 µM, the GI50 [47] was 16.3 µM and the TGI [47] was over 50 µM. The GI50 [27] was over 50000 nM, the TGI [27] was over 50 µM and the GI50 [48] was 27.6 µM. It also gave a TGI [48] of over 50 µM, a GI50 [28] of 10.6 µM and a TGI [28] of 25 µM. It also gave a GI50 [49] of 40 µM, a TGI [49] of over 50 µM and a GI50 [50] of 22.5 µM. It also gave a TGI [50] of over 50 µM, a GI50 [51] of over 50 µM and a TGI [51] of over 50 µM. The GI50 [29] was 15800 nM, the TGI [29] was over 50 µM and the GI50 [31] was 23.4 µM. It also gave a TGI [31] of over 50 µM, a GI50 [33] of 11100 nM and a TGI [33] of 29.1 µM. It also gave a GI50 [34] of over 50000 nM, a TGI [34] of over 50000 nM and a GI50 [35] of 2460 nM. For the same compound, the TGI [35] was 10 µM, the GI50 [52] was 14.4 µM and the TGI [52] was 46.1 µM. For the same compound, the GI50 [53] was 20.1 µM, the TGI [53] was over 50 µM and the GI50 [38] was 40.7 µM. It also gave a TGI [38] of over 50000 nM, a GI50 [54] of 11 µM and a TGI [54] of 25.4 µM. The GI50 [39] was 14.4 µM, the TGI [39] was 44.4 µM and the GI50 [55] was 10.9 µM. The TGI [55] was 19.9 µM, the GI50 [40] was 15200 nM and the TGI [40] was 44.4 µM.
With `ClCCN(CCCl)c1ccc(CNCCCNCc2ccc(N(CCCl)CCCl)cc2)cc1` the TGI [2] was 26.5 µM, the TGI [44] was 7.81 µM and the TGI [7] was 1290 nM. It also gave a TGI [8] of 27.2 µM, a TGI [9] of over 100 µM and a TGI [56] of 9.85 µM. For the same compound, the TGI [46] was 4.71 µM, the TGI [15] was 30.3 µM and the TGI [16] was 5.25 µM. For the same compound, the TGI [19] was over 100 µM, the TGI [23] was over 100 µM and the TGI [26] was over 100 µM. It also gave a TGI [47] of 3.29 µM, a TGI [48] of 26.6 µM and a TGI [50] of 3.18 µM. It also gave a TGI [30] of over 100 µM, a TGI [31] of over 100 µM and a TGI [35] of over 100 µM. It also gave a TGI [36] of over 100 µM, a TGI [37] of 33800 nM and a TGI [38] of 2670 nM. The TGI [54] was 5.37 µM, the TGI [55] was 5.2 µM and the TGI [40] was over 100 µM.
`Fc1ccc(-c2nc(Nc3ccc(-c4nc5ccccc5[nH]4)cc3)nc(N3CCOCC3)n2)cc1` gave a GI50 [3] of 1.12 µM, a TGI [3] of 2.61 µM and a GI50 [43] of 1.69 µM. It also gave a TGI [43] of 3.13 µM, a GI50 [44] of 0.7 µM and a TGI [44] of 3.02 µM. For the same compound, the GI50 [8] was 1410 nM, the TGI [8] was 2.72 µM and the GI50 [14] was 374 nM. The TGI [14] was 1370 nM, the GI50 [16] was 1960 nM and the TGI [16] was 3.42 µM. For the same compound, the GI50 [19] was 0.666 µM, the TGI [19] was 2.13 µM and the GI50 [24] was 1040 nM. For the same compound, the TGI [24] was 2.4 µM, the GI50 [26] was 186 nM and the TGI [26] was 0.372 µM. For the same compound, the GI50 [48] was 1.3 µM, the TGI [48] was 2.7 µM and the GI50 [32] was 1840 nM. For the same compound, the TGI [32] was 3.28 µM, the GI50 [52] was 0.37 µM and the TGI [52] was 1.41 µM. It also gave a GI50 [40] of 452 nM and a TGI [40] of 1.64 µM.
